Measurements: US20200165312A1, “COSMETIC COMPOSITION FOR IMPROVING SKIN CONDITIONS COMPRISING FUSION PROTEIN INCLUDING SKIN PENETRATION ENHANCING PEPTIDE” (LG HOUSEHOLD & HEALTH CARE LTD., priority 2017, published 2020)

Tested on: dermal fibroblasts
Experiment: Hyaluronic acid (HA) production in dermal fibroblasts (ELISA)
Format: cell-based, human
Conditions: 10 ng/mL T-PDGFa or PDGFa, two days; control = 100
Experimental: (§1) Specifically, dermal fibroblasts were inoculated onto a 24-well plate and cultured for 24 hours to obtain cultures having a saturation degree of 70 to 80%. The cultures were washed with PBS and cultured in a serum-free DMEM medium including 10 ng/mL T-PDGFa or PDGFa for two days. A supernatant was obtained therefrom and the amount of hyaluronic acid (HA) produced and released in the culture solution was quantitively analyzed using an ELISA kit (R&D Systems) (Table 5).
as §1, with “The cultures were washed with PBS and cultured in a serum-free DMEM medium including 10 ng/mL T-PDGFa or PDGFa for two days.” left out, “9).” for “5).”

Which “Production (%) of hyaluronic acid (HA)” value does the source give for “PDGFa: platelet-derived growth factor subunit a having an amino acid sequence of SEQ ID NO: 35” here?
Its value is 897 ± 30%.
